{"source": "patent US20240417745A1", "about": "“SYSTEMS AND METHODS FOR SEEDLESS FRUIT TRAIT” (Duke University, priority 2023, published 2024)", "tested_on": "−2 DAA WT ovaries", "assay": "RNA-seq of −2 DAA WT ovaries treated with 2,4-D vs mock", "type": "in vivo, Tomato (Solanum lycopersicum)", "conditions": "100 μM 2,4-D, fold change >1.5, p<0.05", "method": "Tomato plants were grown in greenhouse with 16 h day/8 h night light cycle as described previously (Hu et al.). Parthenocarpy test was done as described previously in Hu et al., with some modifications: −2 DAA flowers on mature tomato plants (2-6 weeks after first flowering) were emasculated and recorded fruit growth 5 weeks later; fruit diameter of at least 1 cm was considered as parthenocarpy. For fruit yield analysis, the number of flowers were counted for each young flower cluster of ˜two-month-old plants, and fruits developed on these clusters were harvested individually and weighed when they were at the red ripe stage. Whole plant phenotypes including plant height, internode numbers and length, and leaf morphology were recorded 5 weeks after sowing. For 2,4-D treatment, 10 μl of 100 μM 2,4-D, or mock solvent (5% MeOH, 0.1% Tween-20) was applied to −2 DAA ovaries of emasculated flowers. All statistical analyses were performed using Student's t-test.\nTotal RNAs were purified from −2 DAA ovaries of WT and 8a-1 8b-1, as well as −2 DAA WT ovaries treated with 100 μM 2,4-D for 2/6/24 h or mock treated (5% methanol, 0.1% Tween 20). RNA-Seq cDNA libraries (three biological repeats) were prepared with the QuantSeq 3′mRNA-Seq library prep kit FWD for Illumina (Lexogen). DNA sequencing was performed with Illumina Next-Seq500 High-Output 75 bp SR. Sequence alignment and DE (differential expression) analysis were done online at lexogen.bluebee.com. Heatmap was created in RStudio with plotly package. Co-regulated genes among 8a 8b and +2,4-D 2/6/24 h gene lists were then identified (fold change >1.5; p<0.1 for 8a 8b vs. WT; p<0.05 for +2,4-D vs. mock). Venn Diagrams were made using online tool at InteractiVenn.net^53. GO analysis was performed using agriGO v2 toolkit (Tian et al. agriGO v2.0: a GO analysis toolkit for the agricultural community, 2017 update. Nucleic Acids Res 45, W122-W129, (2017)). Heatmap analysis was made in R language with the plotly package. […]", "data": [{"molecule": "O=C(O)COc1ccc(Cl)cc1Cl", "note": "[2,4-D]", "values": [{"measurement": "number of auxin-responsive differentially expressed genes (DEG)", "setting": "2 h treatment vs mock", "value": 1731}, {"measurement": "number of auxin-responsive differentially expressed genes (DEG)", "setting": "6 h treatment vs mock", "value": 3262}, {"measurement": "number of auxin-responsive differentially expressed genes (DEG)", "setting": "24 h treatment vs mock", "value": 3212}]}]}
